# Measurements from patent US6737383B1, “Herbicidal oxadiazolidines” (priority 1999, dated 2004).
# Key:
# [1] = system: purple nutsedge; assay: Test B pre/postemergence purple nutsedge; format: in vivo, Cyperus rotundus
# How it was run: (§1)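 Response is a visual 0-to-10 score relative to untreated plants, where 0 means no effect and 10 means complete control, taken twelve to sixteen days after application. Treatments went onto soil at planting and onto foliage of 1- to 4-leaf plants, using a surfactant-containing non-phytotoxic solvent.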
# [2] = system: smallflower flatsedge; assay: Test B flood test smallflower flatsedge; format: in vivo, Cyperus difformis
# How it was run: (§2)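 Each value is a visual injury score relative to controls, with 10 meaning complete control and 0 no effect. Evaluation took place twelve to sixteen days after the 2-leaf-stage plants were treated and kept in the greenhouse.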
# [3] = system: sugar beet; assay: Test B pre/postemergence sugar beet; format: in vivo, Beta vulgaris; conditions: for Plant response rating, Sugarbeets: Rate 250 g/ha
# How it was run: as §1
# [4] = system: bedstraw; assay: Test B pre/postemergence bedstraw; format: in vivo, Galium aparine
# How it was run: as §1
# [5] = system: pigweed; assay: Test B pre/postemergence pigweed; format: in vivo, Amaranthus retroflexus
# How it was run: as §1
# [6] = system: duck salad; assay: Test B flood test duck salad; format: in vivo, Heteranthera limosa
# How it was run: as §2
# [7] = system: corn; assay: Test B pre/postemergence corn; format: in vivo, Zea mays
# How it was run: as §1
# [8] = system: surinam grass; assay: Test B pre/postemergence surinam grass; format: in vivo, Brachiaria decumbens
# How it was run: as §1
# [9] = system: rice; assay: Test B flood test rice; format: in vivo, Oryza sativa
# How it was run: as §2
# [10] = system: rape; assay: Test B pre/postemergence rape; format: in vivo, Brassica napus
# How it was run: as §1
# [11] = system: soybean; assay: Test B pre/postemergence soybean; format: in vivo, Glycine max
# How it was run: as §1
# [12] = system: cocklebur; assay: Test B pre/postemergence cocklebur; format: in vivo, Xanthium strumarium
# How it was run: as §1
# [13] = system: wild oat; assay: Test B pre/postemergence wild oat; format: in vivo, Avena fatua; conditions: for Plant response rating, Wild oats: Rate 250 g/ha
# How it was run: as §1
# [14] = system: wheat; assay: Test B pre/postemergence wheat; format: in vivo, Triticum aestivum; conditions: for Plant response rating, Wheat: Rate 250 g/ha
# How it was run: as §1
# [15] = system: giant foxtail; assay: Test B pre/postemergence giant foxtail; format: in vivo, Setaria faberii
# How it was run: as §1
# [16] = system: velvetleaf; assay: Test B pre/postemergence velvetleaf; format: in vivo, Abutilon theophrasti; conditions: for Plant response rating, Velvetleaf: Rate 250 g/ha
# How it was run: as §1
# [17] = Postemergence, Rate 125 g/ha, scale of 0 to 10 where 0 is no effect and 10 is complete control
# [18] = Postemergence, Rate 250 g/ha, scale 0 to 10, 0 no effect, 10 complete control
# [19] = Preemergence, Rate 62 g/ha, scale 0 to 10 (0 no effect, 10 complete control)
# [20] = Preemergence, Rate 125 g/ha, scale 0 to 10 (0 no effect, 10 complete control)
# [21] = Preemergence, Rate 250 g/ha, scale of 0 to 10 where 0 is no effect and 10 is complete control
# [22] = Preemergence, Rate 500 g/ha, scale 0 (no effect) to 10 (complete control)
# [23] = Rate 62 g/ha, Postemergence, scale of 0 to 10 where 0 is no effect and 10 is complete control
# [24] = Rate 500 g/ha, Postemergence, scale 0 to 10, 0 no effect, 10 complete control
# [25] = Postemergence (flood test species), Rate 125 g/ha, scale of 0 to 10 where 0 is no effect and 10 is complete control
# [26] = Rate 62 g/ha, Postemergence section, flood test species, scale of 0 to 10 where 0 is no effect and 10 is complete control
# [27] = Rate 250 g/ha, Postemergence (flood test), scale 0 to 10, 0 is no effect, 10 is complete control
# [28] = Rate 500 g/ha, listed under Postemergence (flood test species), scale 0 to 10, 0 no effect, 10 complete control
# [29] = Preemergence, Rate 125 g/ha, 0 is no effect, 10 is complete control
# [30] = Preemergence, scale of 0 to 10 where 0 is no effect and 10 is complete control
# [31] = Postemergence, scale 0 to 10, 0 is no effect, 10 is complete control
# [32] = Rate 250 g/ha, Postemergence, scale 0 to 10, 0 is no effect, 10 is complete control
structure (smiles),measurement,setting,value
CCc1noc(C)c1-n1c(=O)on(C(=O)N(c2ccc(F)cc2)C(C)C)c1=O [Compound 101],Nutsedge plant response rating,[1]; [17],0
same,Nutsedge plant response rating,[1]; [18],0
same,Nutsedge plant response rating,[1]; [19],0
same,"Plant response rating, Nutsedge",[1]; [20],0
same,"Plant response rating, Nutsedge",[1]; [21],0
same,Nutsedge plant response rating,[1]; [22],0
same,Nutsedge plant response rating,[1]; [23],0
same,Nutsedge plant response rating,[1]; [24],0
same,S. Flatsedge plant response rating,[2]; [25],0
same,S. Flatsedge plant response rating,[2]; [26],0
same,"Plant response rating, S. Flatsedge",[2]; [27],0
same,S. Flatsedge plant response rating,[2]; [28],0
same,Sugarbeets plant response rating,[3]; [17],0
same,Sugarbeets plant response rating,[3]; [19],0
same,Sugarbeets plant response rating (0 to 10 scale),[3]; [29],0
same,"Plant response rating, Sugarbeets",[3]; [30],0
same,Sugarbeets plant response rating,[3]; [22],0
same,Sugarbeets plant response rating,[3]; [23],0
same,"Plant response rating, Sugarbeets",[3]; [31],0
same,Sugarbeets plant response rating,[3]; [24],0
same,Bedstraw plant response rating,[4]; [19],0
same,"Plant response rating, Bedstraw",[4]; [20],0
same,"Plant response rating, Bedstraw",[4]; [21],0
same,Bedstraw plant response rating,[4]; [22],0
same,Bedstraw plant response rating,[4]; [24],0
same,Redroot pigweed plant response rating,[5]; [17],0
same,Redroot pigweed plant response rating,[5]; [19],0
same,"Plant response rating, Redroot pigweed",[5]; [20],0
same,"Plant response rating, Redroot pigweed",[5]; [21],0
same,Redroot pigweed plant response rating,[5]; [22],0
same,Redroot pigweed plant response rating,[5]; [23],0
same,"Plant response rating, Redroot pigweed",[5]; [32],0
same,Redroot pigweed plant response rating,[5]; [24],0
same,Ducksalad plant response rating,[6]; [25],0
same,Ducksalad plant response rating,[6]; [26],0
same,Ducksalad plant response rating,[6]; [28],0
same,Ducksalad plant response rating,"[6]; flood test, listed under Postemergence, Rate 250 g/ha, scale 0 to 10, 0 no effect, 10 complete control",0
same,Corn plant response rating,[7]; [17],0
same,Corn plant response rating,[7]; [18],0
same,Corn plant response rating,[7]; [19],0
same,"Plant response rating, Corn",[7]; [20],0
same,"Plant response rating, Corn",[7]; [21],0
same,Corn plant response rating,[7]; [22],0
same,Corn plant response rating,[7]; [23],0
same,Corn plant response rating,[7]; [24],0
same,B. signalgrass plant response rating,"[8]; Postemergence, Rate 62 g/ha, scale 0 to 10, 0 is no effect, 10 is complete control",0
same,B. signalgrass plant response rating,[8]; [18],0
same,B. signalgrass plant response rating,[8]; [19],0
same,"Plant response rating, B. signalgrass",[8]; [20],0
same,"Plant response rating, B. signalgrass",[8]; [21],0
same,B. signalgrass plant response rating,[8]; [22],0
same,B. signalgrass plant response rating,"[8]; Rate 125 g/ha, Postemergence, scale 0 to 10, 0 no effect, 10 complete control",0
same,B. signalgrass plant response rating,"[8]; Rate 500 g/ha, Postemergence, scale of 0 to 10 where 0 is no effect and 10 is complete control",0
same,Rice plant response rating,[9]; [25],0
same,Rice plant response rating,[9]; [26],0
same,"Plant response rating, Rice",[9]; [27],0
same,Rice plant response rating,[9]; [28],0
same,Rape plant response rating,[10]; [17],0
same,Rape plant response rating,[10]; [18],0
same,Rape plant response rating,[10]; [19],0
same,"Plant response rating, Rape",[10]; [20],0
same,"Plant response rating, Rape",[10]; [21],0
same,Rape plant response rating,[10]; [22],0
same,Rape plant response rating,[10]; [23],0
same,Rape plant response rating,[10]; [24],0
same,Soybean plant response rating,[11]; [17],2
same,Soybean plant response rating,[11]; [19],0
same,"Plant response rating, Soybean",[11]; [20],0
same,"Plant response rating, Soybean",[11]; [21],0
same,Soybean plant response rating,[11]; [22],0
same,Soybean plant response rating,[11]; [23],2
same,"Plant response rating, Soybean",[11]; [32],3
same,Soybean plant response rating,[11]; [24],3
same,Cocklebur plant response rating,[12]; [17],0
same,Cocklebur plant response rating,[12]; [18],0
same,Cocklebur plant response rating,[12]; [19],0
same,"Plant response rating, Cocklebur",[12]; [20],0
same,"Plant response rating, Cocklebur",[12]; [21],0
same,Cocklebur plant response rating,[12]; [23],0
same,Cocklebur plant response rating,[12]; [24],0
same,Wild oats plant response rating,[13]; [17],0
same,Wild oats plant response rating,[13]; [19],0
same,Wild oats plant response rating (0 to 10 scale),[13]; [29],0
same,"Plant response rating, Wild oats",[13]; [30],0
same,Wild oats plant response rating,[13]; [22],0
same,Wild oats plant response rating,[13]; [23],0
same,"Plant response rating, Wild oats",[13]; [31],0
same,Wild oats plant response rating,[13]; [24],0
same,Wheat plant response rating,[14]; [17],0
same,Wheat plant response rating,[14]; [19],0
same,Wheat plant response rating (0 to 10 scale),[14]; [29],0
same,"Plant response rating, Wheat",[14]; [30],0
same,Wheat plant response rating,[14]; [22],0
same,Wheat plant response rating,[14]; [23],0
same,"Plant response rating, Wheat",[14]; [31],0
same,Wheat plant response rating,[14]; [24],0
same,Giant foxtail plant response rating,[15]; [17],0
same,Giant foxtail plant response rating,[15]; [18],0
same,Giant foxtail plant response rating,[15]; [19],0
same,"Plant response rating, Giant foxtail",[15]; [20],0
same,"Plant response rating, Giant foxtail",[15]; [21],0
same,Giant foxtail plant response rating,[15]; [22],0
same,Giant foxtail plant response rating,[15]; [23],0
same,Giant foxtail plant response rating,[15]; [24],0
same,Velvetleaf plant response rating,[16]; [17],0
same,Velvetleaf plant response rating,[16]; [19],0
same,Velvetleaf plant response rating (0 to 10 scale),[16]; [29],0
same,"Plant response rating, Velvetleaf",[16]; [30],0
same,Velvetleaf plant response rating,[16]; [22],0
same,Velvetleaf plant response rating,[16]; [23],0
same,"Plant response rating, Velvetleaf",[16]; [31],0
same,Velvetleaf plant response rating,[16]; [24],0
